Data: PMC10121968, “Fosgonimeton, a Novel Positive Modulator of the HGF/MET System, Promotes Neurotrophic and Procognitive Effects in Models of Dementia” (Neurotherapeutics, 2022)
Non-standard residues stand in square brackets, D forms with d. Residues, ends and D or L forms follow the SMILES beside them. *: point of attachment. pY = N[C@@H](Cc1ccc(OP(=O)(O)O)cc1)C(=O)O; Hexanoyl = CCCCCC(=O)*; Ahx = NCCCCCC(=O)O

Legend:
[1] = system: LPS-induced neuroinflammatory mouse model; experiment: LPS-induced cognitive impairment, T-maze spontaneous alternation; assay type: in vivo; details: 14 days
Protocol: All animal manipulations were conducted in accordance with the European Directive 2010/63/UE published in the French decree 2013–118 of February 1, 2013, and approved by an independent government-accredited ethics committee (CEEA 35, NEUROFIT, France). Animals for the study consisted of 90 four- to five-week-old CD-1 mice (Janvier, Le Genest St Isle, France). Mice were group-housed and maintained in a room with controlled temperature (21–22 °C) and reversed 12/12 light/dark cycle. The animals had access to food and water ad libitum.
Mice were sorted into the following experimental groups: saline + vehicle (control), LPS + vehicle (LPS), LPS + 0.1 mg/kg memantine, and LPS + fosgonimeton at 0.125, 0.25, 0.5, 1, or 1.25 mg/kg (LPS + fosgo). On day 0 of the study, all groups received either a single intraperitoneal injection of saline or LPS (0.25 mg/kg). During days 1–14, animals received memantine or fosgonimeton treatment once daily. On day 14, 60 min after the last dosing with test compounds or vehicle, mice were assessed for performance on the T-maze spontaneous alternation task.
The T-maze apparatus was made of gray Plexiglas with a main stem (55 cm × 10 cm × 20 cm) and 2 arms (30 cm × 10 cm × 20 cm) positioned at a 90° angle relative to the main stem. A start box (15 cm × 10 cm) was separated from the main stem by a guillotine door. Horizontal doors were also provided to close specific arms during the “forced-choice” alternation task.
The experimental protocol consisted of a single session, which started with 1 forced-choice trial, followed by 14 “free-choice” trials. In the forced-choice trial, the animal was confined for 5 s in the start arm and was then released while either the left or the right goal arm was blocked by a horizontal door. Animals were allowed to explore the maze, eventually entering the open goal arm and afterward returning to the start position. […] The animal was considered to have entered an arm if it placed all 4 paws in the arm. The session was terminated and the animal was removed from the maze after 14 free-choice trials were performed or 10 min elapsed, whichever occurred first. The apparatus was cleaned between each animal run using 70% ethanol. During the trials, animal handling and the visibility of the operator were controlled to minimize interference during testing.
The percentage of alternations over the 14 free-choice trials was determined for each mouse and was used as an index of working memory performance. This percentage was defined as entry into a different goal arm of the T maze over successive trials (e.g., left–right–left–right) and was calculated using the formula: %Alternations=Number of Alternations/14×100
Additionally, percentage of recovery was calculated by normalizing the control group to 100% and the LPS group to 0% and calculating the respective relative response for each individual animal, as follows: %Recovery=(Individual%alternation-meanLPS%alternation)/(Meancontrol%alternation-meanLPS%alternation)
Data were assessed for normality (Shapiro–Wilk) and homoscedasticity (Brown-Forsythe). One-way ANOVA was performed on the data for spontaneous alternations. Dunnett multiple comparison test was used for post hoc pairwise comparisons with the LPS group. The Kruskal–Wallis test was used for percentage of recovery with Dunn’s multiple comparison post hoc test. A value of p < 0.05 was considered to represent a statistically significant difference.

[2] = Fosgonimeton solubility (filtration/HPLC in PBS); assay type: physicochemical; details: osmolarity-corrected PBS
Protocol: Fosgonimeton solubility studies were contracted to GVK Biosciences, Hyderabad, India. Stocks of fosgonimeton were prepared in duplicate at several concentrations in osmolarity-corrected PBS and were vortexed to dissolve into solution. The solutions were filtered through a 0.45-µm filter followed by a 0.22-µm filter to remove insoluble particulates. Pre- and postfiltration aliquots were collected, and their concentration was determined via high-performance liquid chromatography.

[3] = Plasma PK in rats after SC injection; assay type: in vivo, rat; details: SC
Protocol: Four male rats were treated with 10 mg/kg fosgo-AM in DMSO via SC injection. Blood was serially collected at 0.08, 0.25, 0.5, 1, 2, and 4 h after dosing. Plasma was obtained by centrifugation with 2% disodium ethylenediaminetetraacetic acid (EDTA) as an anticoagulant. Plasma samples were precipitated with acetonitrile containing internal standard, and the concentration of fosgo-AM was determined by LC/MS/MS.
This study was conducted as described in the “Fosgo-AM PK in Rats” section with the following changes: animals were given 12 mg/kg fosgonimeton in saline with 0.1% glycine via SC injection, and a dose-linear correction was applied to normalize the dose to 10 mg/kg for comparison with the fosgo-AM study. Sample concentrations of both fosgonimeton and fosgo-AM were determined.

Fosgonimeton PK in mice = assay type: in vivo, mouse; details: 0.75 mg/kg SC, first tested time point
Protocol: Three male BALBc mice were treated with 0.75 mg/kg fosgonimeton in saline with 0.1% glycine via SC injection. Blood was serially collected at 0.25, 0.5, 1, 2, and 4 h after dosing. Plasma was obtained by centrifugation with 2% disodium EDTA as an anticoagulant. Plasma samples were precipitated with acetonitrile containing internal standard, and the concentration of fosgonimeton and fosgo-AM was determined by LC/MS/MS.

[4] = Fosgonimeton CNS distribution in rats; assay type: in vivo, rat; details: 12 mg/kg fosgonimeton SC, all brain regions
Protocol: Three male Sprague Dawley rats per time point were given 12 mg/kg fosgonimeton via SC injection. At 0.16, 0.5, and 1 h after dosing, animals were humanely killed and perfused with chilled saline. Brains were collected and dissected into the following brain regions: whole brain, striatum, olfactory bulb, hippocampus, cerebellum, cerebral cortex, and brainstem. Brain regions were homogenized and the exposures of fosgonimeton and fosgo-AM were determined by LC/MS/MS.

ERK (Thr202/Tyr204) = experiment: Phospho-ERK HTRF assay in HEK293 cells; assay type: cell-based, human; details: HEK293, HGF 10 ng/mL, vs no HGF treatment
Source text: To determine phosphoactivation status of the intracellular signaling molecules ERK (Thr202/Tyr204) or AKT (Ser473), we used homogenous time-resolved fluorescence (HTRF) kits to assess phosphorylation status based on the energy transfer between donor and acceptor phospho-ERK (pERK) or phospho-AKT (pAKT) antibodies. HTRF kit processing for pERK (Phospho-ERK [Thr202/Tyr204] cellular Advanced kit, #64AERPEG, Cisbio, Codolet, France) and pAKT (Phospho-AKT [Ser473] cellular kit, #64AKSPEG, Cisbio, Codolet, France) were carried out per manufacturer instructions. In brief, HEK293 cells were grown at 37 °C, 5% CO2 in DMEM + 10% FBS until approximately 80% confluent. Cells were seeded in polystyrene-treated 96-well cell culture plates at approximately 50,000 cells/well and cultured overnight in 50 µL serum-free growth media. […] Fluorescence emission at 2 different wavelengths (665 nm and 620 nm) were measured on an Envision plate reader (PerkinElmer, Waltham, Massachusetts), and the HTRF ratio of the acceptor and donor emission signals for each well was calculated as follows: HTRF ratio = (665 nm/620 nm) × 10,000. […] Data were assessed for normality (Shapiro–Wilk) and homoscedasticity (Brown-Forsythe). Statistical significance was determined by one-way analysis of variance (ANOVA) with Tukey’s multiple comparison post-test. […]

MDCK cells = experiment: MDCK cell scatter behavior assay; assay type: cell-based, canine; details: HGF 40 ng/mL, 24 h
Protocol: Madin-Darby canine kidney (MDCK, ATCC CCL-34) cells were grown at 37 °C, 5% CO2 in Eagle’s Minimum Essential Medium (EMEM) + 10% FBS in T-75 flasks until 80% confluent. Cells were then plated at 1400 cells/well in black-walled, clear-bottom 96-well plates and grown at 37 °C under 5% CO2 for 24 h. Growth media were replaced by serum-free media for 2 h before treatment. Treatments containing HGF and fosgo-AM were made in serum-free media and applied in quintuplicates for 24 h at 37 °C under 5% CO2. Cells were then fixed in chilled 100% EtOH at 4 °C for 20 min and then stained with wheat germ agglutinin conjugated to CF488 (WGA488, Biotium, 29,022–1, Fremont, California) at […] in phosphate-buffered saline (PBS) for 30 min at RT to visualize whole-cell surfaces. Cultures were then imaged with an iCys instrument (iCyte, Thor Labs, Newton, New Jersey) and analyzed with the ImageJ (National Institutes of Health) particle count feature. Scattering behavior was quantified by normalizing particle counts against total stained area. […] Data were assessed for normality (Shapiro–Wilk) and homoscedasticity (Brown-Forsythe). The statistical difference from HGF alone was determined by one-way ANOVA with Dunnett’s multiple comparison post-test with an alpha value of 0.05 (Prism, GraphPad).

[5] = system: primary rat hippocampal neurons; experiment: Neurite outgrowth assay (beta-III tubulin staining); assay type: cell-based; details: HGF alone 5 ng/mL, 4 days, vs vehicle
Protocol: On day 0, rat hippocampal neurons from newborn pups were isolated and cultured in brain neuronal culture medium (neurobasal medium supplemented with 5% FBS, 2% B-27 supplement, and 0.003% gentamycin) at 37 °C under 5% CO2. At 1 day in vitro (DIV1), cells were transferred to a poly-D-lysine–coated 24-well plate at approximately 10,000 cells/well. Cells were then grown in […] of serum-free medium and treated with the following: 0.1% dimethyl sulfoxide (DMSO; vehicle), 10 nM dihydrotestosterone (positive control), 10 nM fosgo-AM, 1 nM fosgo-AM, 5 ng/ml HGF, or 5 ng/ml HGF + 1 nM fosgo-AM. All treatments contained a final concentration of 0.1% DMSO. For the neurite outgrowth assay, treatment media were refreshed on DIV3, and cells were processed for analysis on DIV4. For the synaptogenesis assay, treatment media were refreshed on DIV3 and DIV6, and cells were processed for analysis on DIV8. Processing for both the neurite outgrowth and the synaptogenesis assays was performed as follows: media were removed, and cells were fixed with 100% methanol for 20 min at RT before methanol was aspirated and each well was washed twice with Dulbecco’s phosphate-buffered saline (DPBS). Cells were permeabilized using 0.02% […] (ThermoFisher, Waltham, Massachusetts) in DPBS for 2 min at RT without shaking, and plates were blocked with 5% bovine serum albumin (BSA) in DPBS for 1 h at RT. Plates were then incubated overnight at 4 °C with gentle shaking with use of beta-III tubulin antibody (ab201740; Abcam, Boston, Massachusetts) to assess neurite outgrowth or with use of 1:500 rabbit anti–synaptobrevin-II antibody (Synaptic Systems, cat# 104 202, Göttingen, Germany) to assess synaptogenesis. After overnight incubation, plates were washed 3 times with DPBS and incubated for 1 h at RT with use of anti–rabbit immunoglobulin G–secondary antibody conjugated to Alexa Fluor 488 (Life Technologies, Carlsbad, California, 1:500). After 5 DPBS washes, coverslips were mounted on slides using fluorescent mounting medium (Golden Bridge International Labs, Bothell, Washington, cat# E19-s). Imaging was performed using the BX43 Olympus microscope driven by the standard “CellSens” software by Olympus. […] Ten images of single cells from a total of 2 assays were analyzed using NeuroJ plug-in for ImageJ to assess neurite outgrowth, as neurite length and the number of branches per neuron were counted for each cell. For the synaptogenesis assay, synaptic count (number of synapses) and synaptic strength (relative abundance of presynaptic vesicles per synapse as measured by synaptobrevin-II fluorescence intensity) were quantified for each cell. Data were assessed for normality (Shapiro–Wilk) and homoscedasticity (Brown-Forsythe). […]

Molecule: CC12CC3CC(C)(C1)CC(N)(C3)C2 [memantine, reference compound]
- percentage of spontaneous alternations vs LPS group ([1]; 0.1 mg/kg I.P. once daily): significantly prevented LPS-induced cognitive deficits
- percentage of recovery (spontaneous alternations) ([1]; positive control, 0.1 mg/kg I.P. once daily): 76.40%

Molecule: CCCCCC(=O)N[C@@H](Cc1ccc(OP(=O)(O)O)cc1)C(=O)N[C@H](C(=O)NCCCCCC(N)=O)[C@@H](C)CC [fosgonimeton] (Hexanoyl-[pY]-Ile-[Ahx]-NH2)
- solubility in aqueous solutions [2]: greater than 70 mg/mL
- fold higher fosgo-AM Cmax vs equivalent direct dose of fosgo-AM [3]: ~4 fold
- systemic exposure of fosgo-AM vs equivalent direct dose of fosgo-AM [3]: higher systemic exposure
- time of appearance of active compound fosgo-AM after fosgonimeton ([3]; first tested time point): ≤ 5 min
- time of appearance of active compound fosgo-AM after fosgonimeton (Fosgonimeton PK in mice): ≤ 15 min
- detection in brain regions [4]: undetectable
- percentage of recovery (spontaneous alternations) ([1]; 0.25 mg/kg SC once daily): 61.76%
- percentage of recovery (spontaneous alternations) ([1]; 0.5 mg/kg SC once daily): 79.40%
- percentage of recovery (spontaneous alternations) ([1]; 1 mg/kg SC once daily): 64.70%
- percentage of recovery (spontaneous alternations) ([1]; 1.25 mg/kg SC once daily): 64.70%
- percentage of spontaneous alternations vs LPS group ([1]; 0.25, 0.5, 1 and 1.25 mg/kg SC once daily): significantly ameliorated these deficits

Molecule: HGF: Recombinant HGF protein (R&D Systems), ligand of the MET receptor
- pERK levels (ERK (Thr202/Tyr204)): significantly increased pERK versus no HGF treatment
- cell scattering behavior (MDCK cells): significantly increased cell scattering behavior
- neurite length per cell [5]: no significant differences compared with vehicle
